In brackets after ≈: the same amount, converted by molar mass.
Key:
[1] = Solubility of eszopiclone in phosphate buffer media at pH 6.8; format: physicochemical
Experimental: Substance containing larger particles has in general lower surface area which may result in decreased water solubility and consequently in decreased biological activity due to impaired absorption from the gastrointestinal tract. […] The solubility was measured at pH 6.8, which represents the pH in the small intestine, a primary site of drug absorption. Therefore, no effect on the gastrointestinal absorption can be expected due to larger particles of eszopiclone.
The solubility of eszopiclone in phosphate buffer media at pH 6.8 was studied at room temperature. An excess of sample was placed in the laboratory beaker filled with 50 ml media and mixed on the magnetic stirrer for 60 minutes. Afterwards, the part of the dispersion was taken from the beaker, filtered through the 0.45 μm filter and the concentration of eszopiclone was determined by UV spectroscopy.

[2] = Stress stability testing at 60° C. for 14 days, impurities by HPLC; format: physicochemical
Experimental: Tablets comprising eszopiclone with different particle sizes were prepared and exposed to stress stability testing at 60° C. for 14 days, stored in vials. The amount of formed degradation products was compared to the sample of commercially available tablets comprising eszopiclone (Lunesta®).
The HPLC analysis were performed with a WATERS Acquity UPLC system equipped with a UPLC BEH Shield, 1.7 μm, 50×2.1 mm column which was maintained in a column oven at 45° C. The mobile phase consisted of a mixture of ammonium acetate, TEA and acetonitrile with pH=5.8. The flow rate was 1.0 mL/min, and the detection wavelength was 303 nm.
All impurities eluted within 21 minutes represent the total amount of eszopiclone impurities.

CN1CCN(C(=O)O[C@H]2c3nccnc3C(=O)N2c2ccc(Cl)cn2)CC1 [Eszopiclone with d(0.9) = 32.4 μm]
Solubility at pH 6.8 ([1]; phosphate buffer pH 6.8, room temperature, 60 minutes stirring, filtered 0.45 μm, UV spectroscopy): 0.44 mg/ml

CN1CCN(C(=O)O[C@H]2c3nccnc3C(=O)N2c2ccc(Cl)cn2)CC1 [Eszopiclone with d(0.9) > 200 μm]
Solubility compared to substance having fine particles (in words) ([1]; pH 6.8): comparable | solubility at 60 min ([1]; phosphate buffer, pH 6.8, aqueous buffer, thermodynamic from solid, phosphate buffer pH 6.8, room temperature, 60 minutes stirring, filtered 0.45 μm, UV spectroscopy): 570 µg/mL (≈ 1470 µM)

CN1CCN(C(=O)O[C@H]2c3nccnc3C(=O)N2c2ccc(Cl)cn2)CC1 [Substance in a crystal form, (+)-5(S)-6-(chloropyridin-2-yik)-7-oxo-6,7-dihydro-5H-pyrrolo[3,4-b]pyrazin-5-yl 4-methylpiperazine-1-carboxylate]
Stability at elevated temperature (in words) ([2]; 60° C. for 14 days): stable | Total sum of impurities ([2]; 14 days, 60° C., stored in vials, all impurities eluted within 21 minutes): <0.05% | Max. unknown ([2]; 14 days, 60° C., stored in vials, maximum unknown impurity): <0.05%

— patent US20080299193A1, “Pharmaceutical composition comprising eszoplicone” (Lek Pharmaceuticals d.d., priority 2007, published 2008)
